In patent publication US20160120840A1, “METHOD AND COMPOSITION FOR TREATING NONEROSIVE REFLUX DISEASE” (SUCAMPO AG, priority 2014, published 2016):

Assays:
[1] = test system: esophagus tissues (non-erosive esophageal damage induced by TCA and DCA); experiment: Effect on non-erosive esophageal damage: tissue conductance of esophagus in Ussing chamber after TCA+DCA treatment; format: in vivo, C57Bl/6J mice; conditions: mice given 4 mM TCA and 2 mM DCA in drinking water for 6 days, Compound A in drinking water for the same period; versus TCA+DCA control; FIG. 1
Description: Effect on non-erosive esophageal damage Male or female C57Bl/6J mice were allowed free access to drinking tap water containing 4 mM taurocholic acid (TCA) and 2 mM deoxycholic acid (DCA) for 6 days. On the day after treatment with TCA and DCA, the mice were sacrificed and their esophagus was removed. The esophagus tissues were divided into two parts and distal parts were used for the study. Each tissue was mounted in the Ussing chamber and short-circuit currents were measured. Compound A ((−)-7-{(2R,4aR,5R,7aR)-2-[(3S)-1,1-difluoro-3-methylpentyl]-2-hydroxy-6-oxooctahydrocyclopenta[b]pyran-5-yl}heptanoic acid) was administered to mice in drinking water for the same period of TCA+DCA treatment. Tissue conductance calculated based on the short-circuit current data was used as an index of tissue damage.

[2] = test system: mouse esophageal tissues (epithelial layer); experiment: HE staining of mouse esophageal tissues; format: in vivo; conditions: 6 days of treatment, Compound A with TCA/DCA; FIG. 2
Excerpt: The mouse esophageal tissues were isolated after 6 days of treatment with control vehicle or drugs (DMSO, TCA/DCA, or Compound A with TCA/DCA). The tissues were separated into two parts, and their lower parts were used for preparation of RT-PCR samples as well as for electrophysiological examination and HE staining. The samples for HE staining were fixed with 10% neutral buffered formalin solution for 12 hrs, after which they were dehydrated and fixed in paraffin. The samples were sliced into 7 μm thick slices in a microtome, and then placed on slide glasses at 43° C. for lhr and then at 55° C. overnight. Following this, tissues were stained with Hematoxylin and Eosin staining solution. The samples were evaluated in a suitable microscope (Olympus EX-43).

claudin-2 = experiment: Quantitative real-time RT-PCR, claudin-2 expression in mouse esophagus tissue; format: in vivo; conditions: 6 days, TCA/DCA with 50 μM Compound A in drinking water, n=3; FIG. 3
Description: (§1) mRNA was prepared from mouse esophagus tissue after 6 days of treatment with vehicle or active agents (Group1:DMSO control, Group2:TCA/DCA positive control, and Group3:TCA/DCTA with 50 μM Compound A in drinking water, n=3 in each group) and reversely transcribed to cDNA by reverse transcriptase (Superscript III, Invitrogen).
(§2) Expression levels of claudin-2 which is expressed in cation-leaky epithelia, and claudin-4 which is a component of tight junction strands (PNAS 107(17), 8011-8016, 2010; Development Biology 312, 509-522, 2007; and Seminars in Cell & Developmental Biology 36 166-176, 2014), were normalized to GAPDH expression by calculating the A Ct=(Ct of GAPDH−Ct of gene). Setting the expression value of GAPDH to 1.0, the relative expression values were then calculated as 2̂ΔCt.

claudin-4 = experiment: Quantitative real-time RT-PCR, claudin-4 expression in mouse esophagus tissue; format: in vivo; conditions: 6 days, TCA/DCA with 50 μM Compound A in drinking water, n=3; FIG. 4
Description: as §1, §2

For `CC[C@H](C)CC(F)(F)[C@@]1(O)CC[C@H]2[C@@H](CC(=O)[C@@H]2CCCCCCC(=O)O)O1` [Compound A, (−)-7-{(2R,4aR,5R,7aR)-2-[(3S)-1,1-difluoro-3-methylpentyl]-2-hydroxy-6-oxooctahydrocyclopenta[b]pyran-5-yl}heptanoic acid], the “Tissue conductance (index of tissue damage)” value [1] was “reduced from that found in control animals”, the “Tissue structure (HE staining), damage of epithelial layer by bile acids” value [2] was “restores or protects against damage by bile acids histologically” and the “Expression level of claudin-2 (normalized to GAPDH)” value (claudin-2) was “downregulated”. The “Expression level of claudin-4 (normalized to GAPDH)” value (claudin-4) was “upregulated”.
